Assays:
Type in all cases: in vivo
[1] = system: upland rice (Oryza sp., var. Tebonnet, RICE); test: Pre-emerge test, crop safety; details: crop damage, pre-emerge, phytotoxicity rating 0-100 at 14 days after application
Summary of the method: (§1)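 Sandy loam pots; pre-emerge: sown 1 d pre-spray, surface-watered after, then bottom-watered. Post-emerge: sown 8–21 d before, 2–3 leaf stage, + 0.25% v/v NIS, bottom-watered. Acetone, 187 l/ha track spray, 15–1000 g ai/ha. 0–100 injury score, day 14.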

[2] = system: field corn (Zea mays L., var. Dekalb 535, CORN); test: Pre-emerge test, crop safety; details: crop damage, pre-emerge, phytotoxicity rating 0-100 at 14 days after application
Summary of the method: as §1

[3] = system: redroot pigweed (Amaranthus retroflexus, AMARE); test: Pre-emerge test, greenhouse herbicide activity screening; details: pre-emerge, phytotoxicity rating 0-100 at 14 days after application
Summary of the method: (§2)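 Plants grown in 10 cm pots of sandy loam mix received acetone-dissolved compounds through a moving flat-fan nozzle. Doses ranged from 15 to 1000 g ai/ha. Pre-emerge pots were seeded one day earlier, post-emerge pots 8–21 days earlier. Fourteen days on, each pot was graded 0–100 for damage.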

[4] = system: velvetleaf (Abutilon theophrasti, ABUTH); test: as above; details: pre-emerge, phytotoxicity rating 0-100 at 14 days after application
Summary of the method: as §2

[5] = system: johnsongrass (Sorghum halepense, SORHA); test: as above; details: pre-emerge, phytotoxicity rating 0-100 at 14 days after application
Summary of the method: as §2

[6] = system: green foxtail (Setaria viridis, SETVI); test: as above; details: pre-emerge, phytotoxicity rating 0-100 at 14 days after application
Summary of the method: as §2

[7] = system: sicklepod (Cassia obtusifolia, CASOB); test: as above; details: pre-emerge, phytotoxicity rating 0-100 at 14 days after application
Summary of the method: as §2

[8] = system: large crabgrass (Digitaria sanguinalis, DIGSA); test: as above; details: pre-emerge, phytotoxicity rating 0-100 at 14 days after application
Summary of the method: as §2

[9] = system: lambsquarters (Chenopodium album, CHEAL); test: as above; details: pre-emerge, phytotoxicity rating 0-100 at 14 days after application
Summary of the method: as §2

[10] = system: ivyleaf morningglory (Ipomoea hederacea, IPOHE); test: as above; details: pre-emerge, phytotoxicity rating 0-100 at 14 days after application
Summary of the method: as §2

[11] = system: barnyardgrass (Echinochloa crus-galli, ECHCG); test: as above; details: pre-emerge, phytotoxicity rating 0-100 at 14 days after application
Summary of the method: as §2

[12] = system: upland rice (Oryza sp., var. Tebonnet, RICE); test: Post-emerge test, crop safety; details: post-emerge, crop damage rating 0-100 at 14 days after application
Summary of the method: (§3)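 Each test used a mechanized track sprayer delivering 187 l/ha of acetone solution at 15–1000 g ai/ha. Post-emerge foliage at 2–3 leaves was treated with added 0.25% v/v non-ionic surfactant and bottom-watered only. Injury was assessed on day 14, where 100 means total kill.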

[13] = system: field corn (Zea mays L., var. Dekalb 535, CORN); test: Post-emerge test, crop safety; details: post-emerge, crop damage rating 0-100 at 14 days after application
Summary of the method: as §3

[14] = system: velvetleaf (Abutilon theophrasti, ABUTH); test: Post-emerge test, greenhouse herbicide activity screening; details: post-emerge, phytotoxicity rating 0-100 at 14 days after application
Summary of the method: (§4)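 Compounds in acetone were track-sprayed at 15-1000 g ai/ha (187 l/ha) on sandy loam pots: pre-emerge one day after seeding, post-emerge at 2-3 leaf stage with 0.25% v/v non-ionic surfactant. Phytotoxicity was rated 14 days later on a 0 (no damage) to 100 (complete death) scale.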

[15] = system: johnsongrass (Sorghum halepense, SORHA); test: as above; details: post-emerge, phytotoxicity rating 0-100 at 14 days after application
Summary of the method: as §4

[16] = system: green foxtail (Setaria viridis, SETVI); test: as above; details: post-emerge, phytotoxicity rating 0-100 at 14 days after application
Summary of the method: as §4

[17] = system: sicklepod (Cassia obtusifolia, CASOB); test: as above; details: post-emerge, phytotoxicity rating 0-100 at 14 days after application
Summary of the method: as §4

[18] = system: large crabgrass (Digitaria sanguinalis, DIGSA); test: as above; details: post-emerge, phytotoxicity rating 0-100 at 14 days after application
Summary of the method: as §4

[19] = system: lambsquarters (Chenopodium album, CHEAL); test: as above; details: post-emerge, phytotoxicity rating 0-100 at 14 days after application
Summary of the method: as §4

[20] = system: ivyleaf morningglory (Ipomoea hederacea, IPOHE); test: as above; details: post-emerge, phytotoxicity rating 0-100 at 14 days after application
Summary of the method: as §4

[21] = system: barnyardgrass (Echinochloa crus-galli, ECHCG); test: as above; details: post-emerge, phytotoxicity rating 0-100 at 14 days after application
Summary of the method: as §4

[22] = system: redroot pigweed (Amaranthus retroflexus, AMARE); test: as above; details: post-emerge, phytotoxicity rating 0-100 at 14 days after application
Summary of the method: as §4

CC(C)Oc1c(Cl)cc(F)c(N2C(=O)C3=C(CCCC3)C2=O)c1NC(=O)c1ccc(F)cc1F [8-18]
Pre-emerge Herbicidal Activity RICE ([1]; rate 63 g ai/ha): 10 | Pre-emerge Herbicidal Activity RICE ([1]; rate 250 g ai/ha): 30 | Pre-emerge Herbicidal Activity CORN ([2]; rate 63 g ai/ha): 0 | Pre-emerge Herbicidal Activity CORN ([2]; rate 250 g ai/ha): 10 | Pre-emerge Herbicidal Activity AMARE ([3]; rate 63 g ai/ha): 60 | Pre-emerge Herbicidal Activity AMARE ([3]; rate 250 g ai/ha): 100 | Pre-emerge Herbicidal Activity ABUTH ([4]; rate 63 g ai/ha): 90 | Pre-emerge Herbicidal Activity ABUTH ([4]; rate 250 g ai/ha): 100 | Pre-emerge Herbicidal Activity SORHA ([5]; rate 63 g ai/ha): 0 | Pre-emerge Herbicidal Activity SORHA ([5]; rate 250 g ai/ha): 50 | Pre-emerge Herbicidal Activity SETVI ([6]; rate 63 g ai/ha): 50 | Pre-emerge Herbicidal Activity SETVI ([6]; rate 250 g ai/ha): 100 | Pre-emerge Herbicidal Activity CASOB ([7]; rate 63 g ai/ha): 0 | Pre-emerge Herbicidal Activity CASOB ([7]; rate 250 g ai/ha): 60 | Pre-emerge Herbicidal Activity DIGSA ([8]; rate 63 g ai/ha): 10 | Pre-emerge Herbicidal Activity DIGSA ([8]; rate 250 g ai/ha): 80 | Pre-emerge Herbicidal Activity CHEAL ([9]; rate 63 g ai/ha): 70 | Pre-emerge Herbicidal Activity CHEAL ([9]; rate 250 g ai/ha): 100 | Pre-emerge Herbicidal Activity IPOHE ([10]; rate 63 g ai/ha): 0 | Pre-emerge Herbicidal Activity IPOHE ([10]; rate 250 g ai/ha): 30 | Pre-emerge Herbicidal Activity ECHCG ([11]; rate 63 g ai/ha): 10 | Pre-emerge Herbicidal Activity ECHCG ([11]; rate 250 g ai/ha): 90 | Post-emerge Herbicidal Activity RICE ([12]; 63 g ai/ha): 50 | Post-emerge Herbicidal Activity RICE ([12]; 250 g ai/ha): 60 | Post-emerge Herbicidal Activity CORN ([13]; 63 g ai/ha): 5 | Post-emerge Herbicidal Activity CORN ([13]; 250 g ai/ha): 30 | Post-emerge Herbicidal Activity ABUTH ([14]; 63 g ai/ha): 100 | Post-emerge Herbicidal Activity ABUTH ([14]; 250 g ai/ha): 100 | Post-emerge Herbicidal Activity SORHA ([15]; 63 g ai/ha): 10 | Post-emerge Herbicidal Activity SORHA ([15]; 250 g ai/ha): 30 | Post-emerge Herbicidal Activity SETVI ([16]; 63 g ai/ha): 30 | Post-emerge Herbicidal Activity SETVI ([16]; 250 g ai/ha): 30 | Post-emerge Herbicidal Activity CASOB ([17]; 63 g ai/ha): 30 | Post-emerge Herbicidal Activity CASOB ([17]; 250 g ai/ha): 40 | Post-emerge Herbicidal Activity DIGSA ([18]; 63 g ai/ha): 10 | Post-emerge Herbicidal Activity DIGSA ([18]; 250 g ai/ha): 20 | Post-emerge Herbicidal Activity CHEAL ([19]; 63 g ai/ha): 70 | Post-emerge Herbicidal Activity CHEAL ([19]; 250 g ai/ha): 80 | Post-emerge Herbicidal Activity IPOHE ([20]; 63 g ai/ha): 50 | Post-emerge Herbicidal Activity IPOHE ([20]; 250 g ai/ha): 60 | Post-emerge Herbicidal Activity ECHCG ([21]; 63 g ai/ha): 10 | Post-emerge Herbicidal Activity ECHCG ([21]; 250 g ai/ha): 30 | Post-emerge Herbicidal Activity AMARE ([22]; 63 g ai/ha): 100 | Post-emerge Herbicidal Activity AMARE ([22]; 250 g ai/ha): 100

Source: patent publication US6355799B1, “Substituted benzene compounds, process for their preparation, and herbicidal and defoliant compositions containing them” (ISK Americas Incorporated, priority 1997, dated 2002)
